Data on 15 molecules can be found in patent US20250263370A1 (Tay Therapeutics Limited, priority 2022, published 2025).

One data set deals with BRD4 BD2 (Homo sapiens (Human), UniProt O60885). The data set can be described thus: NanoBRET bromodomain assay, NanoLuc-BRD4-BD2 fusion in HEK293 cells.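 As to all read-outs here: tracer displacement BRET read in transfected cells after 2 h compound exposure at 37 °C, signal in milliBRET units corrected against no-tracer background wells.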 Particulars: for IC50: BRD4 BD2 (IC50), NanoBRET, HEK293 cells, top concentration 10 μM; for Fold selectivity: IC50 for BRD4 BD1 divided by IC50 for BRD4 BD2, qualitative if an IC50 is at the upper limit. Background: Bioluminescence resonance energy transfer reports proximity on the nanometre scale.

A further data set addresses BRD4 BD1 (Homo sapiens (Human), UniProt O60885). Briefly: NanoBRET bromodomain assay, NanoLuc-BRD4-BD1 fusion in HEK293 cells. Particulars: top concentration 10 μM. It is filed as cell-based.
A short description of data set [1]: Intrinsic clearance in liver microsomes, rat. It is filed as in vitro ADME. Particulars: rat liver microsomes, Method 1. Summed up:
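Compound at 1 μM (0.1–1% DMSO) incubated at 37 °C with mouse or rat liver microsomes (0.5 mg/mL protein) and 1 mM NADPH in PBS pH 7.4; samples taken up to 60 min and quenched in cold acetonitrile. LC-MS/MS of percent remaining gave half-life and CLint; no-NADPH controls run.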
(In general: Liver microsomes are a subcellular fraction often used to study metabolism.)

Data set [2] can be described thus: Thermodynamic solubility in FaSSIF pH 6.5 buffer. It is filed as physicochemical. Particulars: Method 1 (UV-vis, 25° C., 24 hrs). The procedure: FaSSIF v2 buffer is freshly prepared prior to use according to the suppliers' instructions and the pH adjusted to 6.5 using 1 M NaOH or 1 M HCl as required. From 1 mM working solution of test compound in DMSO, the λmax of the test compound is determined by scanning from 200 nm to 700 nm, in 1 nm steps with an EPOCH UV/Visible spectrophotometer (Biotek Instruments Inc.). A 12-point standard curve of compound concentration versus absorption at λmax is generated via two-fold serial dilutions of the 1 mM working solution with DMSO. Approximately 1 mg of test compound is accurately weighed into an Eppendorf tube and the appropriate volume of FaSSIF buffer is added to make a nominal concentration of 1 mg/mL. The tube is incubated on a rotator at 20 rpm, 25° C. for 24 hrs. Samples are then filtered using 0.45 μm filters (Sartorious, CAT #1776C) and the filtrate subjected to UV-vis spectroscopy analysis. The absorption at λmax is compared to the standard curve to determine the concentration of compound in solution after 24 hours.
FaSSIF buffer was prepared according to the suppliers' instructions and the pH adjusted to 6.5 using 1 M NaOH or 1 M HCl as required. […] A stir stick was added to each vial and vials sealed with a moulded PTDE/SIL 96-well plate cover. The plate was shaken at 25° C. at 1,100 rpm using an Eppendorf Thermomixer Comfort plate shaker. The plates were filtered using a vacuum manifold and diluted with a mixture of H2O and acetonitrile containing internal standard. The concentration of the test compound in the filtrate was determined by LCMS analysis with reference to the internal standards to determine the solubility in the buffer.

Data set [3] can be described thus: Intrinsic clearance in liver microsomes, mouse. It is filed as in vitro ADME. Particulars: pH 7.4, Method 2, read-out: Half-Life (T1/2) (min), Mouse. The procedure:
From stock solution of compound on 10 mM DMSO, a working solution of 0.1 mM is prepared by diluting the compound in DMSO. 6.25 μL of a 20 mg/mL solution of microsomes in PBS pH 7.4 buffer is added to 216.25 μL PBS pH 7.4 buffer (final microsome concentration—0.5 mg/mL). 25 μL of 10 mM solution of NADPH in PBS pH 7.4 buffer is added to the incubations (final NADPH concentration—1 mM). The mixture is pre-warmed to 37° C. for 10 minutes. 2.5 μL of test compound working solution is added (final compound concentration—1 μM with 1% DMSO). Aliquots of 30 μL are taken from the reaction solution at 0.5, 5, 15, 30 and 60 minutes. The reaction was stopped by the addition of 5 volumes of cold acetonitrile with IS (100 nM alprazolam, 200 nM caffeine and 100 nM tolbutamide). Samples were centrifuged at 3, 220 g for 40 minutes. Aliquots of 100 μL of the supernatant are mixed with 100 μL of ultra-pure H2O and used for LC-MS/MS analysis. The percent compound remaining at each time point is calculated with respect to that of the 0.5 min sample. The data are analysed to calculate half-life. Control experiments are run without NADPH and blank samples are prepared using DMSO without the test compound.
A 50 mM stock solution (in DMSO) is prepared for the compound. From the stock solution, a working solution of 0.5 mM is prepared by diluting the compound in DMSO. This concentration of working solution is prepared considering a final concentration of 1 uM with 0.1% DMSO. The compound (1 μL of working solution) is spiked in PBS with pH 7.4 ([…]) at a concentration of 1 μM. Subsequently, 110 μL of 10 mM NADPH is added (as a co-factor). The sample is incubated at 37° C. for 15 min. Following this, pre-warmed liver microsomes (27.5 μL; final protein conc. 0.5 mg/mL) are added. The samples are then incubated at 37° C. Aliquots of samples are withdrawn at 0, 5, 15, 30, 45 and 60 min. The reaction is stopped by using chilled acetonitrile containing internal standard. The samples are centrifuged, and the supernatants analysed by LC-MS/MS. The percent compound remaining at each time point is calculated with respect to that of the 0 min sample. The data are then analysed to calculate half-life and intrinsic clearance (CLint). Control experiments are run without NADPH and blank samples are prepared using DMSO without the test compound.

SMILES strings stand for the structures.

Procedure for BRD4 BD1: HEK293 cells were transfected using NanoLuc-BRD4-BD1 or NanoLuc-BRD4-BD2 fusion vectors and incubated at 37° C. in an atmosphere of 5% CO2 for 20-24 hours. The transfected cells were then dispensed into 96-well plates using 90 μl cell suspension per well containing 2×10^5 cells/mL in Opti-MEM and 1× final concentration of tracer. 90 μL per well of cell suspension without tracer was also dispensed into at least 3 wells as “No tracer control samples” for background correction. Serially diluted test compounds were prepared at 1000× concentration in DMSO and further diluted to 10× concentration in Opti-MEM. […] Plates were then incubated at 37° C. +5% 002 incubator for 2 hours. […] Donor emission (450 nm) and acceptor emission (610 nm) were measured using PHERAstar (BMG LabTech). For data analysis, the raw BRET ratio was generated and converted to milliBRET units with background correction using the formula: [(Acceptorsample/Donorsample−(Acceptorno tracer control/Donorno tracer control)]×1000. The mBU data was plotted as a function of compound concentration and IC50s for BRET assay were determined by nonlinear regression analysis of concentration response curves using the Collaborative Drug Discovery Vault software. The fold-selectivity was calculated by dividing the IC50 for BRD4 BD1 by the IC50 for BRD4 BD2.

Consider `CNC(=O)c1[nH]c(C(=O)N[C@H]2CC[C@H](OC)CC2)cc1OC(C)c1ccccc1` (single isomer, unassigned) [Example 100, N^5-(trans-4-methoxycyclohexyl)-N^2-methyl-3-(1-phenylethoxy)-1H-pyrrole-2,5-dicarboxamide], for which, at BRD4 BD2, the IC50 was > 10000 nM; the Fold selectivity result was “— (Fold ≥0 and ≤2)”. In addition, on BRD4 BD1, the IC50 was ≥ 10000 nM. The “Half-Life (T1/2) (min), Rat” value in data set [1] is on record as 19 min. In addition, the “Thermodynamic Solubility FaSSIF pH 6.5 (μM)” value in data set [2] is 377 μM.
For the molecule `CNC(=O)c1[nH]c(C(=O)NC2CC(F)(F)C2)cc1O[C@@H](C)c1ccccc1` [Example 109, (S)—N^5-(3,3-difluorocyclobutyl)-N^2-methyl-3-(1-phenylethoxy)-1H-pyrrole-2,5-dicarboxamide], the IC50 against BRD4 BD2 was 200 to 1000 nM; at BRD4 BD1, ≥ 10000 nM. Also, the Fold selectivity result at BRD4 BD2 was “X (Fold >2 and ≤50)”. For the same molecule, the half-life at 1 μM in data set [3] was > 60 min.
With `CNC(=O)c1[nH]c(C(=O)N[C@@H]2CC[C@@H](O)C2)cc1O[C@@H](C)c1ccccc1` (racemic) [Example 116, N^5-(trans-3-hydroxycyclopentyl)-N^2-methyl-3-((S)-1-phenylethoxy)-1H-pyrrole-2,5-dicarboxamide], the Fold selectivity entry on BRD4 BD2 is “XX (Fold >50 and ≤200)”. Besides, the IC50 against BRD4 BD1 was ≥ 10000 nM. Also, in data set [3], the half-life at 1 μM was > 60 min.
Consider `CNC(=O)c1[nH]c(C(=O)N[C@@H]2CCOC2)cc1O[C@@H](C)c1ccccc1` [Example 114, N^2-methyl-3-((S)-1-phenylethoxy)-N^5-((R)-tetrahydrofuran-3-yl)-1H-pyrrole-2,5-dicarboxamide], for which the results for the IC50 against BRD4 BD2 and at BRD4 BD1 were 200 to 1000 nM and ≥ 10000 nM, respectively. Further, the Fold selectivity entry on BRD4 BD2 is “X (Fold >2 and ≤50)”. In addition, in data set [3], the half-life at 1 μM is > 60 min.
For the molecule `CNC(=O)c1[nH]c(C(=O)NC(C)C)cc1O[C@@H](C)c1ccccc1` [Example 105, (S)—N^5-isopropyl-N^2-methyl-3-(1-phenylethoxy)-1H-pyrrole-2,5-dicarboxamide], on BRD4 BD2, the IC50 was 200 to 1000 nM; the Fold selectivity result was “X (Fold >2 and ≤50)”. Further, at BRD4 BD1, the IC50 was ≥ 10000 nM. For the same molecule, the half-life at 1 μM in data set [3] was > 60 min.
Take `CNC(=O)c1[nH]c(C(=O)N[C@H]2CC[C@H](O)C2)cc1O[C@@H](C)c1ccccc1` [Example 115, N^5-((1S,3S)-3-hydroxycyclopentyl)-N^2-methyl-3-((S)-1-phenylethoxy)-1H-pyrrole-2,5-dicarboxamide]: the results for the half-inhibitory concentration (IC50) against BRD4 BD2 and at BRD4 BD1 were 50 to 200 nM and ≥ 10000 nM, respectively. For the same molecule, at BRD4 BD2, the Fold selectivity entry was “XX (Fold >50 and ≤200)”. For the same molecule, in data set [3], the half-life at 1 μM was > 60 min.
With `CNC(=O)c1[nH]c(C(=O)N[C@H]2CCC(F)(F)C2)cc1O[C@@H](C)c1ccccc1` [Example 110, N^5-((S)-3,3-difluorocyclopentyl)-N^2-methyl-3-((S)-1-phenylethoxy)-1H-pyrrole-2,5-dicarboxamide], at BRD4 BD2, the IC50 was 200 to 1000 nM; the Fold selectivity result is “X (Fold >2 and ≤50)”. Also, on BRD4 BD1, the half-inhibitory concentration (IC50) is ≥ 10000 nM. The half-life at 1 μM in data set [3] was > 60 min.
With `CNC(=O)c1[nH]c(C(=O)NC23CC(C2)C3)cc1O[C@@H](C)c1ccccc1` [Example 117, (S)—N^5-(bicyclo [1.1.1]pentan-1-yl)-N^2-methyl-3-(1-phenylethoxy)-1H-pyrrole-2,5-dicarboxamide], on BRD4 BD2, the 50% inhibitory concentration (IC50) lay within 50 to 200 nM; the Fold selectivity entry was “XX (Fold >50 and ≤200)”. The concentration for half-maximal inhibition (IC50) against BRD4 BD1 was ≥ 10000 nM. In addition, the half-life at 1 μM in data set [3] is > 60 min.
As for `CNC(=O)c1[nH]c(C(=O)N[C@H]2CCOC2)cc1O[C@@H](C)c1ccccc1` [Example 113, N^2-methyl-3-((S)-1-phenylethoxy)-N^5-((S)-tetrahydrofuran-3-yl)-1H-pyrrole-2,5-dicarboxamide], on BRD4 BD2, the half-maximal inhibitory concentration (IC50) was in the range of 200 to 1000 nM; the Fold selectivity entry was “X (Fold >2 and ≤50)”. For the same molecule, the 50% inhibitory concentration (IC50) on BRD4 BD1 was ≥ 10000 nM. In addition, the half-life at 1 μM in data set [3] was > 60 min.
Consider `CNC(=O)c1[nH]c(C(=O)NC2CC2)cc1O[C@@H](C)c1ccccc1` [Example 106, (S)—N^5-cyclopropyl-N^2-methyl-3-(1-phenylethoxy)-1H-pyrrole-2,5-dicarboxamide], for which, on BRD4 BD2, the half-maximal inhibitory concentration (IC50) lay in the range of 50 to 200 nM; the Fold selectivity result was “XX (Fold >50 and ≤200)”. In addition, on BRD4 BD1, the IC50 was ≥ 10000 nM. In data set [3], the half-life at 1 μM is > 60 min.
As to `CNC(=O)c1[nH]c(C(=O)NC2COC2)cc1O[C@@H](C)c1ccccc1` [Example 107, (S)—N^2-methyl-N^5-(oxetan-3-yl)-3-(1-phenylethoxy)-1H-pyrrole-2,5-dicarboxamide], at BRD4 BD2, the 50% inhibitory concentration (IC50) lay within 50 to 200 nM; the Fold selectivity result was “XX (Fold >50 and ≤200)”. The IC50 on BRD4 BD1 was ≥ 10000 nM. Further, the half-life at 1 μM in data set [3] was > 60 min.
Consider `CNC(=O)c1[nH]c(C(=O)N[C@@H]2CCC(F)(F)C2)cc1O[C@@H](C)c1ccccc1` [Example 111, N^5-((R)-3,3-difluorocyclopentyl)-N^2-methyl-3-((S)-1-phenylethoxy)-1H-pyrrole-2,5-dicarboxamide], for which the values for the half-inhibitory concentration (IC50) on BRD4 BD2 and against BRD4 BD1 were 200 to 1000 nM and ≥ 10000 nM, respectively. Moreover, the Fold selectivity entry on BRD4 BD2 was “X (Fold >2 and ≤50)”. For the same molecule, in data set [3], the half-life at 1 μM was > 60 min.
On to `CNC(=O)c1[nH]c(C(=O)N[C@H]2C[C@H](O)C2)cc1O[C@@H](C)c1ccccc1` [Example 108, N^5-(trans-3-hydroxycyclobutyl)-N^2-methyl-3-((S)-1-phenylethoxy)-1H-pyrrole-2,5-dicarboxamide], for which, at BRD4 BD2, the IC50 lay within 50 to 200 nM; the Fold selectivity entry was “XX (Fold >50 and ≤200)”. In addition, the concentration for half-maximal inhibition (IC50) against BRD4 BD1 is ≥ 10000 nM. Besides, the half-life at 1 μM in data set [3] was > 60 min.
As for `CNC(=O)c1[nH]c(C(=O)NC23CC(O)(C2)C3)cc1O[C@@H](C)c1ccccc1` [Example 118, (S)—N^5-(3-hydroxybicyclo [1.1.1]pentan-1-yl)-N^2-methyl-3-(1-phenylethoxy)-1H-pyrrole-2,5-dicarboxamide], on BRD4 BD2, the IC50 is 50 to 200 nM; the Fold selectivity result is “XX (Fold >50 and ≤200)”. For the same molecule, the IC50 against BRD4 BD1 is ≥ 10000 nM. Besides, the half-life at 1 μM in data set [3] is > 60 min.
In the case of `CNC(=O)c1[nH]c(C(=O)NCCC(F)(F)F)cc1O[C@@H](C)c1ccccc1` [Example 112, (S)—N^2-methyl-3-(1-phenylethoxy)-N^5-(3,3,3-trifluoropropyl)-1H-pyrrole-2,5-dicarboxamide], at BRD4 BD2, the IC50 lay within 200 to 1000 nM; the Fold selectivity result was “X (Fold >2 and ≤50)”. Further, the IC50 against BRD4 BD1 was ≥ 10000 nM. For the same molecule, the half-life at 1 μM in data set [3] was > 60 min.

By IC50 is commonly meant the concentration that inhibits the measured activity by half. A higher IC50 goes with weaker potency.
